According to BigSolDB 2.1:

Cc1cc(C)c(C(=O)P(=O)(C(=O)c2c(C)cc(C)cc2C)c2ccccc2)c(C)c1
Settings	solubility (mole fraction)
in acetonitrile, 295.4 K	0.00463
in acetonitrile, 303.2 K	0.00793
in acetonitrile, 308 K	0.0108
in acetonitrile, 313.3 K	0.0154
in acetonitrile, 318.1 K	0.0225
in acetonitrile, 323.2 K	0.03
in acetonitrile, 328.1 K	0.0421
in acetonitrile, 333.2 K	0.0611
in acetonitrile, 338.1 K	0.0863
in cyclohexane, 295.4 K	0.0016
in cyclohexane, 303.2 K	0.00239
in cyclohexane, 308.3 K	0.00323
in cyclohexane, 313.1 K	0.00414
in cyclohexane, 318.2 K	0.00542
in cyclohexane, 323.4 K	0.00732
in cyclohexane, 328.1 K	0.00966
in cyclohexane, 333.2 K	0.0123
in cyclohexane, 338.1 K	0.017
in cyclohexane, 343.3 K	0.0217
in ethanol, 295.4 K	0.00372
in ethanol, 303.2 K	0.00627
in ethanol, 307.2 K	0.00827
in ethanol, 313.1 K	0.0119
in ethanol, 318 K	0.0161
in ethanol, 324.1 K	0.0239
in ethanol, 328.3 K	0.0326
in ethanol, 333.2 K	0.0471
in ethyl acetate, 295.4 K	0.0178
in ethyl acetate, 303.2 K	0.0259
in ethyl acetate, 307.9 K	0.0326
in ethyl acetate, 313.2 K	0.0406
in ethyl acetate, 318.2 K	0.0508
in ethyl acetate, 323.3 K	0.064
in ethyl acetate, 328.2 K	0.0842
in ethyl acetate, 333 K	0.103
in ethyl acetate, 338.1 K	0.127
in ethyl acetate, 343.2 K	0.16
in isopropanol, 295.4 K	0.00278
in isopropanol, 305.2 K	0.0055
in isopropanol, 308.2 K	0.0068
in isopropanol, 313.3 K	0.0098
in isopropanol, 318 K	0.0137
in isopropanol, 324.1 K	0.0205
in isopropanol, 328.1 K	0.0281
in isopropanol, 333.2 K	0.04
in isopropanol, 338.3 K	0.0556
in isopropanol, 343.2 K	0.0793
in methanol, 295.4 K	0.00235
in methanol, 303.2 K	0.00434
in methanol, 308.3 K	0.00629
in methanol, 313.1 K	0.00909
in methanol, 318.2 K	0.0134
in methanol, 323.4 K	0.0195
in methanol, 328 K	0.0283
in methanol, 333.2 K	0.0427
in n-hexane, 295.4 K	0.00151
in n-hexane, 303.2 K	0.00218
in n-hexane, 308.1 K	0.00277
in n-hexane, 313.2 K	0.00323
in n-hexane, 318.1 K	0.00389
in n-hexane, 322.9 K	0.00442
in n-hexane, 328.1 K	0.00525
in n-hexane, 333.2 K	0.00635
